# Results published in patent US20100249145A1, “Inhibitors of VEGF Receptor and HGF Receptor Signaling” (Methylgene, Inc., priority 2005, published 2010).
# Tests used:
# VEGF receptor KDR = target: T1, VEGF receptor KDR (Homo sapiens, UniProt P35968); assay: In vitro receptor tyrosine kinase assay (DELFIA), VEGF receptor KDR; type: biochemical; conditions: Table 30; ATP 0.6 uM, enzyme 5 nM; read-out: VEGF(enz.) (IC50)
# T1 construct: made in house; host or cells: Sf9 cells (Spodoptera frugiperda), recombinant baculovirus
# T1 sequence (P35968 806-1356): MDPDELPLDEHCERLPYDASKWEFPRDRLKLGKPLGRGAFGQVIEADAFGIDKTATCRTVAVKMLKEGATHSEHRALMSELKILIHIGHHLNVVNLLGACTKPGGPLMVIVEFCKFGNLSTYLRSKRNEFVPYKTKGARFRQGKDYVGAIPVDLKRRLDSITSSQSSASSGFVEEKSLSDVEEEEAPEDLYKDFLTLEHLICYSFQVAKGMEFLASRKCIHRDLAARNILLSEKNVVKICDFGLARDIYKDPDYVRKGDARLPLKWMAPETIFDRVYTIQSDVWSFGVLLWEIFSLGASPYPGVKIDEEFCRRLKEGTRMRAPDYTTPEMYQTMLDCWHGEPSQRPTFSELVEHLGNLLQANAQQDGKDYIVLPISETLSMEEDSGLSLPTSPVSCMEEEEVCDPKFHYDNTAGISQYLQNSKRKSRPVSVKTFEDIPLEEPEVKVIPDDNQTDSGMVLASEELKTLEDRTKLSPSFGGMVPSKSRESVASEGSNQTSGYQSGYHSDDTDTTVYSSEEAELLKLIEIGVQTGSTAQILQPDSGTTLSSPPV
# U87 cells = assay: In vivo solid tumor disease model, U87 xenograft; set-up: species or system female athymic CD 1 mice; conditions: U87MG
# From the text: (§1) In Vivo Solid Tumor Disease Model
# (§2) This test measures the capacity of compounds to inhibit solid tumor growth.
# (§3) Tumor xenografts were established in the flank of female athymic CD 1 mice (Charles River Inc.), by subcutaneous injection of 1×10^6U87, A431 or SKLMS cells/mouse. Once established, tumors were then serially passaged s.c. in nude mice hosts. Tumor fragments from these host animals were used in subsequent compound evaluation experiments. For compound evaluation experiments female nude mice weighing approximately 20 g were implanted s.c. by surgical implantation with tumor fragments of ˜30 mg from donor tumors. When the tumors were approximately 100 mm^3 in size (˜7-10 days following implantation), the animals were randomized a separated into treatment and control groups. Each group contained 6-8 tumor-bearing mice, each of which was ear-tagged and followed individually throughout the experiment
# (§4) Mice were weighed and tumor measurements are taken by calipers three times weekly, starting on Day 1. These tumor measurements were converted to tumor volume by the well-known formula (L+W/4)^34/3π. The experiment was terminated when the control tumors reached a size of approximately 1500 mm^3. In this model, the change in mean tumor volume for a compound treated group/the change in mean tumor volume of the control group (non-treated or vehicle treated)×100 (ΔT/ΔC) was subtracted from 100 to give the percent tumor growth inhibition (% TGI) for each test compound. In addition to tumor volumes, body weight of animals were monitored twice weekly for up to 3 weeks.
# (§5) Regiment of administration was once daily.
# SKLMS cells = assay: In vivo solid tumor disease model, SKLMS xenograft; set-up: species or system female athymic CD 1 mice; conditions: SKLMS40, 30 mg/kg once daily IP, vehicle DMSO
# From the text: as §1, §2, §3, §4, §5
# A549 = assay: In vivo solid tumor disease model, A549 xenograft; set-up: species or system female athymic CD 1 mice
# MKN74 = assay: In vivo solid tumor disease model, MKN74 xenograft; set-up: species or system female athymic CD 1 mice; conditions: vehicle DMSO, 10 days
# SW48 = assay: In vivo solid tumor disease model, SW48 xenograft; set-up: species or system female athymic CD 1 mice; conditions: 30 mg/kg once daily IP, vehicle DMSO, 14 days
# HCT116 = assay: In vivo solid tumor disease model, HCT116 xenograft; set-up: species or system female athymic CD 1 mice; conditions: HCT116, vehicle DMSO
# [1] = target: T2, recombinant human c-Met/HGF receptor (Homo sapiens, UniProt P08581); assay: In vitro receptor tyrosine kinase assay (DELFIA), c-Met/HGF receptor; type: biochemical; conditions: Table 30; ATP 10 uM, enzyme 25 nM; read-out: C-Met (enz.) (IC50)
# T2 construct: His tag (histidine tag from pBlueBacHis2A); made in house; host or cells: Hi-5 cells (Trichoplusia ni), recombinant baculovirus
# T2 sequence (P08581 1078-1337): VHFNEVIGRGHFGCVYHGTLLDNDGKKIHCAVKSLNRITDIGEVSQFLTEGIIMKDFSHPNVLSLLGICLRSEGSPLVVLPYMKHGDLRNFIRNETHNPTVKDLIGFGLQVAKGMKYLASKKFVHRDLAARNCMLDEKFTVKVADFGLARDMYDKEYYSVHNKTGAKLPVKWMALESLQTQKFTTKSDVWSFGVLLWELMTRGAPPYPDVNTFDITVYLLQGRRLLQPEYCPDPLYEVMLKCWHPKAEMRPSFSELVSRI
# TPR-MET fusion protein = TPR-MET fusion protein (Homo sapiens, UniProt P08581); assay: C-Met phosphorylation cell-based assay (MNNGHOS cells, immunoblot); conditions: Table 30, 3 hours treatment, read-out: C-Met cell-based Y1230-34-35 tpr-met inhibition (IC50)
# TPR-MET fusion protein, sequence (P08581 with tags, fused parts or gaps): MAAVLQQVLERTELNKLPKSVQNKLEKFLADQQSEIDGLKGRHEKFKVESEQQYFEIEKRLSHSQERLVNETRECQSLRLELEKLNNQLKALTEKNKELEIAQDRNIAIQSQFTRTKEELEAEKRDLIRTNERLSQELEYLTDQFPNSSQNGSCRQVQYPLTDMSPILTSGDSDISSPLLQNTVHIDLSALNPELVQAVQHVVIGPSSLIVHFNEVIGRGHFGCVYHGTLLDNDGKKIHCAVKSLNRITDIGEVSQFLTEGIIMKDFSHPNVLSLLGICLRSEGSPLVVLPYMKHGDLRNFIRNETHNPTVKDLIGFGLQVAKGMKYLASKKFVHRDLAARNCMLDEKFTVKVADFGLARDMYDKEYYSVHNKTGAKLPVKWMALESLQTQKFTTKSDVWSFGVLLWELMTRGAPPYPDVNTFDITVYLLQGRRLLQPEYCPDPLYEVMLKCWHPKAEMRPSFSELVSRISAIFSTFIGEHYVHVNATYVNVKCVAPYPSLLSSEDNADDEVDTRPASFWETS
# From the text: C-Met Phosphorylation Cell-Based Assay
# A431 cells = assay: In vivo solid tumor disease model, A431 xenograft; set-up: species or system female athymic CD 1 mice; conditions: 30 mg/kg once daily IP, vehicle DMSO
# From the text: as §1, §2, §3, §4, §5
# DU145 = assay: In vivo solid tumor disease model, DU145 xenograft; set-up: species or system female athymic CD 1 mice; conditions: vehicle DMSO, 10 days
# MDA-MB-231 = assay: In vivo solid tumor disease model, MDA-MB-231 xenograft; set-up: species or system female athymic CD 1 mice; conditions: 75 mg/kg once daily PO, vehicle 0.5% CMC in acetate buffer (pH 4.0), 14 days
# MNNG-HOS = assay: In vivo solid tumor disease model, MNNG-HOS xenograft; set-up: species or system female athymic CD 1 mice; conditions: 14 days
# MV4-11 = assay: In vivo solid tumor disease model, MV4-11 xenograft; set-up: species or system female athymic CD 1 mice; conditions: 20 mg/kg once daily p.o., 14 days
# [2] = 15 mg/kg once daily IP, vehicle DMSO, 10 days
# [3] = 30 mg/kg once daily IP, vehicle DMSO, 14 days
# [4] = 100 mg/kg once daily PO, vehicle 5% DMSO - 1% Tween-80 in water, 14 days
# [5] = 30 mg/kg once daily IP, 14 days
smiles,measurement,setting,value
"CN(C)C(=O)c1cc2nccc(Oc3ccc(NC(=S)NC(=O)Cc4ccccc4)cc3F)c2s1 [Example 1, 1-(4-(2-(Dimethylcarbamoyl)thieno[3,2-b]pyridin-7-yloxy)-3-fluorophenyl)-3-(2-phenylacetyl)thiourea]",IC50,VEGF receptor KDR,< 50 nM
same,Tumor Growth Inhibition (%),U87 cells; [2],c (% TGI in the range of 25-49)
same,Tumor Growth Inhibition (%),"U87 cells; 30 mg/kg once daily IP, vehicle DMSO, 7 days",c (% TGI in the range of 25-49)
same,Tumor Growth Inhibition (%),U87 cells; [3],c (% TGI in the range of 25-49)
same,Tumor Growth Inhibition (%),"U87 cells; 30 mg/kg once daily IP, vehicle DMSO, 14 days (a* footnote class)","a* (greater than 100% tumor growth inhibition (i.e., tumor shrinkage))"
same,Tumor Growth Inhibition (%),U87 cells; [4],c (% TGI in the range of 25-49)
same,Tumor Growth Inhibition (%),SKLMS cells; 14 days,b (% TGI in the range of 50-74)
same,Tumor Growth Inhibition (%),A549; [3],b (% TGI in the range of 50-74)
same,Tumor Growth Inhibition (%),MKN74; 15 mg/kg once daily IP,d (% TGI in the range of 0-24)
same,Tumor Growth Inhibition (%),MKN74; 30 mg/kg once daily IP,c (% TGI in the range of 25-49)
same,Tumor Growth Inhibition (%),SW48,b (% TGI in the range of 50-74)
same,Tumor Growth Inhibition (%),HCT116; [5],c (% TGI in the range of 25-49)
"CCN(CC)C(=O)c1cc2nccc(Oc3ccc(NC(=S)NC(=O)Cc4ccccc4)cc3F)c2s1 [Example 7, 1-(4-(2-(diethylcarbamoyl)thieno[3,2-b]pyridin-7-yloxy)-3-fluorophenyl)-3-(2-phenylacetyl)thiourea]",IC50,[1],50 to 250 nM
same,IC50,VEGF receptor KDR,250 to 500 nM
same,IC50,TPR-MET fusion protein,50 to 250 nM
same,Tumor Growth Inhibition (%),SW48,c (% TGI in the range of 25-49)
same,Tumor Growth Inhibition (%),HCT116; [5],b (% TGI in the range of 50-74)
"O=C(Cc1ccccc1)NC(=S)Nc1ccc(Oc2ccnc3cc(-c4ccccn4)sc23)c(F)c1 [Example 13, 1-(4-(2-(Pyridin-2-yl)thieno[3,2-b]pyridin-7-yloxy)-3-fluorophenyl)-3-(2-phenylacetyl)thiourea]",IC50,VEGF receptor KDR,< 50 nM
same,Tumor Growth Inhibition (%),U87 cells; [3],a (% TGI in the range of 75-100)
same,Tumor Growth Inhibition (%),A431 cells; 7 days,b (% TGI in the range of 50-74)
same,Tumor Growth Inhibition (%),SKLMS cells; 10 days,b (% TGI in the range of 50-74)
same,Tumor Growth Inhibition (%),SW48,d (% TGI in the range of 0-24)
same,Tumor Growth Inhibition (%),DU145; 30 mg/kg once daily IP,d (% TGI in the range of 0-24)
"Cn1ccnc1-c1cc2nccc(Oc3ccc(NC(=S)NC(=O)Cc4ccccc4)cc3F)c2s1 [Example 15, N-(3-Fluoro-4-(2-(1-methyl-1H-imidazol-2-yl)thieno[3,2-b]pyridin-7-yloxy)phenylcarbamothioyl)-2-phenylacetamide]",IC50,VEGF receptor KDR,< 50 nM
same,Tumor Growth Inhibition (%),U87 cells; [2],b (% TGI in the range of 50-74)
same,Tumor Growth Inhibition (%),"U87 cells; 15 mg/kg once daily IV, vehicle 50/50 DMSO:40/60 PEG/0.2 N HCl in saline, 10 days",b (% TGI in the range of 50-74)
same,Tumor Growth Inhibition (%),"U87 cells; 30 mg/kg once daily IP, vehicle DMSO, 10 days",b (% TGI in the range of 50-74)
same,Tumor Growth Inhibition (%),U87 cells; [3],b (% TGI in the range of 50-74)
same,Tumor Growth Inhibition (%),"U87 cells; 30 mg/kg once daily IV, vehicle 50/50 DMSO:40/60 PEG/0.2 N HCl in saline, 10 days",b (% TGI in the range of 50-74)
same,Tumor Growth Inhibition (%),U87 cells; [4],a (% TGI in the range of 75-100)
same,Tumor Growth Inhibition (%),A431 cells; 14 days,b (% TGI in the range of 50-74)
same,Tumor Growth Inhibition (%),SKLMS cells; 10 days,b (% TGI in the range of 50-74)
same,Tumor Growth Inhibition (%),A549; [3],b (% TGI in the range of 50-74)
same,Tumor Growth Inhibition (%),"A549; 50 mg/kg once daily PO, vehicle 5% DMSO - 1% Tween-80 in water, 11 days",c (% TGI in the range of 25-49)
same,Tumor Growth Inhibition (%),"A549; 75 mg/kg once daily PO, vehicle 5% DMSO - 1% Tween-80 in water, 10 days",b (% TGI in the range of 50-74)
same,Tumor Growth Inhibition (%),"A549; 75 mg/kg once daily PO, vehicle 5% DMSO - 1% Tween-80 in water, 12 days",c (% TGI in the range of 25-49)
same,Tumor Growth Inhibition (%),MKN74; 15 mg/kg once daily IP,c (% TGI in the range of 25-49)
same,Tumor Growth Inhibition (%),MKN74; 30 mg/kg once daily IP,c (% TGI in the range of 25-49)
same,Tumor Growth Inhibition (%),"HCT116; 15 mg/kg once daily IP, 10 days",c (% TGI in the range of 25-49)
same,Tumor Growth Inhibition (%),"HCT116; 30 mg/kg once daily IP, 10 days",c (% TGI in the range of 25-49)
same,Tumor Growth Inhibition (%),DU145; 15 mg/kg once daily IP,d (% TGI in the range of 0-24)
"Cn1cnc(-c2cc3nccc(Oc4ccc(NC(=S)NC(=O)Cc5ccccc5F)cc4F)c3s2)c1 [Example 137, N-(3-Fluoro-4-(2-(1-methyl-1H-imidazol-4-yl)thieno[3,2-b]pyridin-7-yloxy)phenylcarbamothioyl)-2-(2-fluorophenyl)acetamide]",Tumor Growth Inhibition (%),MDA-MB-231,b (% TGI in the range of 50-74)
"COc1ccccc1CC(=O)NC(=S)Nc1ccc(Oc2ccnc3cc(-c4cn(C)cn4)sc23)c(F)c1 [Example 138, N-(3-Fluoro-4-(2-(1-methyl-1H-imidazol-4-yl)thieno[3,2-b]pyridin-7-yloxy)phenylcarbamothioyl)-2-(2-methoxyphenyl)acetamide]",Tumor Growth Inhibition (%),MDA-MB-231,b (% TGI in the range of 50-74)
Cn1cnc(-c2cc3nccc(Oc4ccc(NC(=S)NC(=O)Cc5ccc(F)cc5F)cc4F)c3s2)c1 [drawing 493],Tumor Growth Inhibition (%),MNNG-HOS; 40 mg/kg once daily p.o.,a (% TGI in the range of 75-100)
Cn1cnc(-c2cc3nccc(Oc4ccc(NC(=S)NC(=O)Cc5ccc(F)cc5)cc4F)c3s2)c1 [drawing 494],Tumor Growth Inhibition (%),MNNG-HOS; 75 mg/kg once daily p.o.,"a* (greater than 100% tumor growth inhibition (i.e., tumor shrinkage))"
CCn1cnc(-c2cc3nccc(Oc4ccc(NC(=S)NC(=O)Cc5ccccc5C)cc4F)c3s2)c1 [drawing 495],Tumor Growth Inhibition (%),MNNG-HOS; 20 mg/kg once daily p.o.,c (% TGI in the range of 25-49)
C#Cc1ccccc1CC(=O)NC(=S)Nc1ccc(Oc2ccnc3cc(-c4cn(C)cn4)sc23)c(F)c1 [drawing 497],Tumor Growth Inhibition (%),MV4-11,a (% TGI in the range of 75-100)
